From EP4745137A1 (Gluetacs Therapeutics (Shanghai) Co., Ltd., priority 2023, dated 2025)

Legend:
[1] = system: Vcap; test: Tumor cell proliferation inhibition (CellTiter-Meiluncell Luminescent Cell Viability Assay), Vcap; conditions: Homo sapiens, 96 h, read-out: inhibitory activity (IC50, nM) against tumor cells proliferation, Vcap
Experimental: (§1) The tumor cells used herein were cultured in a cell culture medium listed in table 2 at 37°C in an incubator with 5% CO2. Prior to experimentation, all cell lines used were correctly identified by STR profiling, and tested negative for mycoplasma contamination using a mycoplasma detection kit through routine screenings.
(§2) On the following day, the test compounds of the present disclosure were subjected to serial dilution. […] Subsequently, 0.5 µL of the test compound dilution was transferred into the 96-well plate containing the cells, with each well containing 100 µL of cell culture medium. […] Into the 96-well plate, the diluted test compounds and corresponding detection reagents were added, resulting in final test compound concentrations of 500 nM and 10 nM, respectively. The experimental procedure is described below using the diluted 2 µM test compound as an example.
(§3) After the cells were treated with the compounds of the present disclosure for a specified period (the treatment durations were shown in Table 3), the cell viability assay reagent was added to the culture medium according to the kit's instructions to determine cell viability. […] All controls were treated using the same procedure as the compounds of the present disclosure. The growth inhibition curves for the compounds of the present disclosure were plotted using Prism GraphPad software, and the IC50 values were calculated therefrom.

[2] = biological target: T1, IKZF2 (Homo sapiens, UniProt Q96SW2+Q9UKS7); test: Western-blot assay of substrate protein degradation in hPBMCs, IKZF2; format: cell-based; conditions: 24 hours of compound treatment, compounds tested at 50 nM and 500 nM (concentration of the table not stated)
T1 construct: endogenous in cells; host or cells: hPBMCs (Milecell Biotechnologies)

[3] = biological target: T2, GSPT1 (Homo sapiens, UniProt P15170+Q96SW2); test: Western-blot assay of substrate protein degradation in hPBMCs, GSPT1; format: cell-based; conditions: 24 hours of compound treatment, compounds tested at 50 nM and 500 nM (concentration of the table not stated)
T2 construct: endogenous in cells; host or cells: hPBMCs (Milecell Biotechnologies)
T2 sequence (P15170 whole entry): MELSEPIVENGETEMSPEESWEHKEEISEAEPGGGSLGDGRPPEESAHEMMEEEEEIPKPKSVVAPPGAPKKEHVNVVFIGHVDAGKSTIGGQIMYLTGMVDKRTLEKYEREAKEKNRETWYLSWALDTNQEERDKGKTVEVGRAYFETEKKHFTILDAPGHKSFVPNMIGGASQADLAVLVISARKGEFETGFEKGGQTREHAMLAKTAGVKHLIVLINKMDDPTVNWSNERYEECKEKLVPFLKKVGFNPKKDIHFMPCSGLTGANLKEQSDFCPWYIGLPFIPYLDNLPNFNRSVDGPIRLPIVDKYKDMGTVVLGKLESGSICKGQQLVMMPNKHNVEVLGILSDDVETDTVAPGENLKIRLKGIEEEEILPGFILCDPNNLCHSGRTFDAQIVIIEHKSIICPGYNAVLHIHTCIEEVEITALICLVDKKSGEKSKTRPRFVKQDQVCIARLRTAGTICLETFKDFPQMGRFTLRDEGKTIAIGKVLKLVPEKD
T2 sequence (Q96SW2 whole entry): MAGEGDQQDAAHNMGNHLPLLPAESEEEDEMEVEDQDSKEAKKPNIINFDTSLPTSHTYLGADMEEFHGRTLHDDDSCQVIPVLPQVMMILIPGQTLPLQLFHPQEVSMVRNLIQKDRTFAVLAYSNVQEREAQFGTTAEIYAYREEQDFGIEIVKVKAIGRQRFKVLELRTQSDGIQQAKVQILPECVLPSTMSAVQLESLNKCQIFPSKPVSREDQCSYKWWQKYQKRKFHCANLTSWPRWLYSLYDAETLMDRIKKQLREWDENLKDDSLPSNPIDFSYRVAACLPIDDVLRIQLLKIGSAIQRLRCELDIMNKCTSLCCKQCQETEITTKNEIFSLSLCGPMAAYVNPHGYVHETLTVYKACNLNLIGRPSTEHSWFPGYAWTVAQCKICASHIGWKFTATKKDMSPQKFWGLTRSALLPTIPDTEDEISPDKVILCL
T2 sequence (Q16531 whole entry partner): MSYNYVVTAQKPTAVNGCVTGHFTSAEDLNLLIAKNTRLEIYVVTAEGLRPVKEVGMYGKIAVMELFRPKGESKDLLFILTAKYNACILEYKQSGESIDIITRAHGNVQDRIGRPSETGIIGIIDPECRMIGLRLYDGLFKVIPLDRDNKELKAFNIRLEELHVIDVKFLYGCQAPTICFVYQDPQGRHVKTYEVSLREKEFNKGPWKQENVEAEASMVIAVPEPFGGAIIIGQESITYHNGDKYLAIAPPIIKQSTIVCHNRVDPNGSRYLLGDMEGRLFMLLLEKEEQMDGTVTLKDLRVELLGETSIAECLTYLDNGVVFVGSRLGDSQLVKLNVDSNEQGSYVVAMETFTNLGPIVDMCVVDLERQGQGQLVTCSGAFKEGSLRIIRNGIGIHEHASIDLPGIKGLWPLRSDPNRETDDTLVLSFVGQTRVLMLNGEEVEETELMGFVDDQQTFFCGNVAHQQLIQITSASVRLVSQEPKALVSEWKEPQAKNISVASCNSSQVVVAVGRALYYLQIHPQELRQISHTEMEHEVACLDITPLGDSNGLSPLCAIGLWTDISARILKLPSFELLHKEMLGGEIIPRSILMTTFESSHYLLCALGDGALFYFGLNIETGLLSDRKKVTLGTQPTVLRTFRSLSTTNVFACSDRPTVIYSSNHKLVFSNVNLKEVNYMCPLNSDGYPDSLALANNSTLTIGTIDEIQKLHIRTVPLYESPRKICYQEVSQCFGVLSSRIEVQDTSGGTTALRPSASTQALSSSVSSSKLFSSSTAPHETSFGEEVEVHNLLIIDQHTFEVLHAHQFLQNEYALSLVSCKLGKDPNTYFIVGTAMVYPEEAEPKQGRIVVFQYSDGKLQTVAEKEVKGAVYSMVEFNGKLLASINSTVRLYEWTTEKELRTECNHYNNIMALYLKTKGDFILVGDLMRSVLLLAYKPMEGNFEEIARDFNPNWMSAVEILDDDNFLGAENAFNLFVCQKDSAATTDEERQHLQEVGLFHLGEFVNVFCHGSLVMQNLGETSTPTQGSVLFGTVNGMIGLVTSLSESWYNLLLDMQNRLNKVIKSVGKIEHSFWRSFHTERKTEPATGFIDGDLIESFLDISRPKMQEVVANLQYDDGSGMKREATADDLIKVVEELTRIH

[4] = biological target: T3, CK1α (Homo sapiens, UniProt P48729+Q96SW2); test: Western-blot assay of substrate protein degradation in hPBMCs, CK1α; format: cell-based; conditions: 24 hours of compound treatment, compounds tested at 50 nM and 500 nM (concentration of the table not stated)
T3 construct: endogenous in cells; host or cells: hPBMCs (Milecell Biotechnologies)
T3 sequence (P48729 whole entry): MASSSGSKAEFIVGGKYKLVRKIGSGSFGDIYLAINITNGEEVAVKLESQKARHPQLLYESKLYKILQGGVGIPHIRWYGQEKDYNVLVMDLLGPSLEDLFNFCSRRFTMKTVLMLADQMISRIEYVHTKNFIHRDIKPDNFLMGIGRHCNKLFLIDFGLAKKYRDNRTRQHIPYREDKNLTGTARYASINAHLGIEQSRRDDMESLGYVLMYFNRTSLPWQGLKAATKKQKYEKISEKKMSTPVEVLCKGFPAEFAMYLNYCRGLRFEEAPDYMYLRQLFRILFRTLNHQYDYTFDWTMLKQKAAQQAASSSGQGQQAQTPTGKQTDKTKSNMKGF
T3 sequence (Q96SW2 whole entry): as the sequence (Q96SW2 whole entry) above
T3 sequence (Q16531 whole entry partner): as the sequence (Q16531 whole entry partner) above

[5] = system: Jurkat; test: Tumor cell proliferation inhibition (CellTiter-Meiluncell Luminescent Cell Viability Assay), Jurkat; conditions: Homo sapiens, 96 h, read-out: inhibitory activity (IC50, nM) against tumor cells proliferation, Jurkat
Experimental: as §1, §2, §3

[6] = biological target: T4, human Cereblon WT GST-tagged protein (Homo sapiens, UniProt Q96SW2); test: CRBN-binding affinity by HTRF (CEREBLON BINDING kit); conditions: HTRF inhibitory activity, CEREBLON BINDING kit; read-out: HTRF IC50
T4 construct: purchased CISBIO 64BDCRBNPEH
T4 sequence (Q96SW2 whole entry): as the sequence (Q96SW2 whole entry) above

[7] = biological target: T5, IKZF3 (Homo sapiens, UniProt Q96SW2+Q9UKT9); test: Western-blot assay of substrate protein degradation in hPBMCs, IKZF3; format: cell-based; conditions: 24 hours of compound treatment, compounds tested at 50 nM and 500 nM (concentration of the table not stated)
T5 construct: endogenous in cells; host or cells: hPBMCs (Milecell Biotechnologies)
T5 sequence (Q9UKT9 whole entry): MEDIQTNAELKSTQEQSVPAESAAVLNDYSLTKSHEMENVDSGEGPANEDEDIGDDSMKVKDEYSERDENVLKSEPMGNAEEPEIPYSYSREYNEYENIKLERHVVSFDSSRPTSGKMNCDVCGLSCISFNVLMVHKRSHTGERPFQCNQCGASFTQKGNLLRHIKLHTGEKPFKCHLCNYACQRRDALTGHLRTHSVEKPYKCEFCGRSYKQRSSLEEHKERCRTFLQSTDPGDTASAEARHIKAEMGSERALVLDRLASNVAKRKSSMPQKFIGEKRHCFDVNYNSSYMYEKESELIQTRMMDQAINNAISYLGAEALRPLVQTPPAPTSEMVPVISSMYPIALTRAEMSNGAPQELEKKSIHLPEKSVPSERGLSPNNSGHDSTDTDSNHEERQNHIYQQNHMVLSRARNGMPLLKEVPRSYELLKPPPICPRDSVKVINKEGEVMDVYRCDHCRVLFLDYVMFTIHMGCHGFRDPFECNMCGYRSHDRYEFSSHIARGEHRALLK
T5 sequence (Q96SW2 whole entry): as the sequence (Q96SW2 whole entry) above
T5 sequence (Q16531 whole entry partner): as the sequence (Q16531 whole entry partner) above

[8] = system: TMD8; test: Tumor cell proliferation inhibition (CellTiter-Meiluncell Luminescent Cell Viability Assay), TMD8; conditions: Homo sapiens, TMD8, 96 h, read-out: inhibitory activity (IC50, nM) against tumor cells proliferation, TMD8
Experimental: as §1, §2, §3

[9] = system: CAL-62; test: Tumor cell proliferation inhibition (CellTiter-Meiluncell Luminescent Cell Viability Assay), CAL-62; conditions: Homo sapiens, CAL-62, 96 h, read-out: inhibitory activity (IC50, nM) against tumor cells proliferation, CAL-62
Experimental: as §1, §2, §3

[10] = system: CCRF-CEM; test: Tumor cell proliferation inhibition (CellTiter-Meiluncell Luminescent Cell Viability Assay), CCRF-CEM; conditions: Homo sapiens, 96 h, read-out: inhibitory activity (IC50, nM) against tumor cells proliferation, CCRF-CEM
[11] = system: MGC803; test: Tumor cell proliferation inhibition (CellTiter-Meiluncell Luminescent Cell Viability Assay), MGC803; conditions: Homo sapiens, MGC-803, 96 h, read-out: inhibitory activity (IC50, nM) against tumor cells proliferation, MGC803
[12] = biological target: T6, IKZF1 (Homo sapiens, UniProt Q13422+Q96SW2); test: Western-blot assay of substrate protein degradation in hPBMCs, IKZF1; format: cell-based; conditions: 24 hours of compound treatment, compounds tested at 50 nM and 500 nM (concentration of the table not stated)
T6 construct: endogenous in cells; host or cells: hPBMCs (Milecell Biotechnologies)
T6 sequence (Q13422 whole entry): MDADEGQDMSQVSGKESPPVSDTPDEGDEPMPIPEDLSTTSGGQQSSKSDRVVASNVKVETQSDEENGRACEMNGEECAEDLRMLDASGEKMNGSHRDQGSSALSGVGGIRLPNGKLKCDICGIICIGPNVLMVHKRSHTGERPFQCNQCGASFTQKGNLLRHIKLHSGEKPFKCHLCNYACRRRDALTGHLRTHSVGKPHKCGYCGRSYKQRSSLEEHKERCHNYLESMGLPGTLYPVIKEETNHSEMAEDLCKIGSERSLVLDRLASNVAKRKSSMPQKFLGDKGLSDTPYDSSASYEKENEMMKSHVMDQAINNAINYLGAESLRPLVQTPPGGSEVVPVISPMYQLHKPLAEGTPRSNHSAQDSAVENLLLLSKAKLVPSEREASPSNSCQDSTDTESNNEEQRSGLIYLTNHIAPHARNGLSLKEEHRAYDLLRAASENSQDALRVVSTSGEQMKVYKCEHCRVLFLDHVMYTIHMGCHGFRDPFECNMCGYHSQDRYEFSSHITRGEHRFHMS
T6 sequence (Q96SW2 whole entry): as the sequence (Q96SW2 whole entry) above
T6 sequence (Q16531 whole entry partner): as the sequence (Q16531 whole entry partner) above

[13] = system: SW620; test: Tumor cell proliferation inhibition (CellTiter-Meiluncell Luminescent Cell Viability Assay), SW620; conditions: Homo sapiens, SW-620, 96 h, read-out: inhibitory activity (IC50, nM) against tumor cells proliferation, SW620
Experimental: as §1, §2, §3

[14] = biological target: T7, WEE1 (Homo sapiens, UniProt P30291+Q96SW2); test: Western-blot assay of substrate protein degradation in hPBMCs, WEE1; format: cell-based; conditions: 24 hours of compound treatment, compounds tested at 50 nM and 500 nM (concentration of the table not stated)
T7 construct: endogenous in cells; host or cells: hPBMCs (Milecell Biotechnologies)
T7 sequence (P30291 whole entry): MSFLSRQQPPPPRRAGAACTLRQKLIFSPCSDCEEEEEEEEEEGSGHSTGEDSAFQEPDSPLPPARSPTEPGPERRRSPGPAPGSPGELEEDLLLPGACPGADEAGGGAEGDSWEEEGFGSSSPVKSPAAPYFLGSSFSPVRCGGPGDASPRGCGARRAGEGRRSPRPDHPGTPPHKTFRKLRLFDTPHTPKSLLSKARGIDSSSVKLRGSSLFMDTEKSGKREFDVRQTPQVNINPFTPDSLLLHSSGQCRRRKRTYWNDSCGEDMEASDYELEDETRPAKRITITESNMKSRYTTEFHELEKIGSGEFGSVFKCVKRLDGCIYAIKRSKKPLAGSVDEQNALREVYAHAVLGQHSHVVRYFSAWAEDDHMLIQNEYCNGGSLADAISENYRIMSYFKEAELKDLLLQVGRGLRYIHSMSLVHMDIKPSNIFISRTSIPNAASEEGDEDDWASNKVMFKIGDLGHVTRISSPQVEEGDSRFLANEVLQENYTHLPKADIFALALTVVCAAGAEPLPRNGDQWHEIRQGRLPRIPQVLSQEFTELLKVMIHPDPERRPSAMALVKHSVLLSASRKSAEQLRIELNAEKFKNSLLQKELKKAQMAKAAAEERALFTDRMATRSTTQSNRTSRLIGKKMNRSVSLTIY
T7 sequence (Q96SW2 whole entry): as the sequence (Q96SW2 whole entry) above
T7 sequence (Q16531 whole entry partner): as the sequence (Q16531 whole entry partner) above

[15] = system: Human acute T lymphocytic leukemia cells (Molt-4); test: Tumor cell proliferation inhibition (CellTiter-Meiluncell Luminescent Cell Viability Assay), Molt-4; conditions: MOLT-4, 96 h, read-out: inhibitory activity (IC50, nM) against tumor cells proliferation, Molt 4
[16] = system: NCI-H1975; test: Tumor cell proliferation inhibition (CellTiter-Meiluncell Luminescent Cell Viability Assay), NCI-H1975; conditions: Homo sapiens, NCI-H1975, 96 h, read-out: inhibitory activity (IC50, nM) against tumor cells proliferation, H1975
Experimental: as §1, §2, §3

[17] = system: MM.1R; test: Tumor cell proliferation inhibition (CellTiter-Meiluncell Luminescent Cell Viability Assay), MM.1R; conditions: Homo sapiens, 96 h, read-out: inhibitory activity (IC50, nM) against tumor cells proliferation, MM.1R
[18] = system: SR; test: Tumor cell proliferation inhibition (CellTiter-Meiluncell Luminescent Cell Viability Assay), SR; conditions: Homo sapiens, 96 h, read-out: inhibitory activity (IC50, nM) against tumor cells proliferation, SR
[19] = system: Human breast cancer cells (MDA-MB-231); test: Tumor cell proliferation inhibition (CellTiter-Meiluncell Luminescent Cell Viability Assay), MDA-MB-231; conditions: MDA-MB-231, 96 h, read-out: inhibitory activity (IC50, nM) against tumor cells proliferation, MDA-MB-231
Experimental: as §1, §2, §3

IC50 [1] [nM]	IC50 [5] [nM]	IC50 [6] [nM]	IC50 [8] [nM]	IC50 [9] [nM]	IC50 [10] [nM]	IC50 [11] [nM]	IC50 [13] [nM]	IC50 [15] [nM]	IC50 [16] [nM]	IC50 [17] [nM]	IC50 [18] [nM]	Structure (SMILES)	IKZF2 substrate protein remaining % [2]	GSPT1 substrate protein remaining % [3]	CK1a substrate protein remaining % [4]	IKZF3 substrate protein remaining % [7]	IKZF 1 substrate protein remaining % [12]	Weel substrate protein remaining % [14]	IC50 [19] [nM]
10 to 50	10 to 50	500 to 1000	100 to 500	10 to 50	5 to 10	100 to 500	10 to 50	–	–	–	–	O=C1CCC(N2Cc3cc(CN4CCC(c5noc6cc(F)ccc56)CC4)ccc3C2=O)C(=O)N1 (centres unmarked) [GT-04254, 3-(5-((4-(6-fluorobenzo[d]isoxazol-3-yl)piperidin-1-yl)methyl)-1-oxoisoindolin-2-yl)piperidine-2,6-dione]	A (0% ≤ substrate protein remaining % ≤ 80%)	A (0% ≤ substrate protein remaining % ≤ 80%)	A (0% ≤ substrate protein remaining % ≤ 80%)	A (0% ≤ substrate protein remaining % ≤ 80%)	A (0% ≤ substrate protein remaining % ≤ 80%)	A (0% ≤ substrate protein remaining % ≤ 80%)	–
50 to 100	5 to 10	500 to 1000	–	10 to 50	5 to 10	500 to 1000	100 to 500	5 to 10	100 to 500	10 to 50	500 to 1000	O=C1CCC(N2Cc3cc(CN4CCC(c5ccccc5Cl)CC4)ccc3C2=O)C(=O)N1 (centres unmarked) [GT-04468, 3-(5-((4-(2-chlorophenyl)piperidin-1-yl)methyl)-1-oxoisoindolin-2-yl)piperidine-2,6-dione]	A (0% ≤ substrate protein remaining % ≤ 80%)	A (0% ≤ substrate protein remaining % ≤ 80%)	A (0% ≤ substrate protein remaining % ≤ 80%)	A (0% ≤ substrate protein remaining % ≤ 80%)	A (0% ≤ substrate protein remaining % ≤ 80%)	A (0% ≤ substrate protein remaining % ≤ 80%)	–
50 to 100	5 to 10	500 to 1000	–	10 to 50	10 to 50	100 to 500	100 to 500	10 to 50	500 to 1000	10 to 50	500 to 1000	O=C1CCC(N2Cc3cc(CN4CCC(c5ccccc5F)CC4)ccc3C2=O)C(=O)N1 (centres unmarked) [GT-04470, 3-(5-((4-(2-fluorophenyl)piperidin-1-yl)methyl)-1-oxoisoindolin-2-yl)piperidine-2,6-dione]	A (0% ≤ substrate protein remaining % ≤ 80%)	A (0% ≤ substrate protein remaining % ≤ 80%)	A (0% ≤ substrate protein remaining % ≤ 80%)	A (0% ≤ substrate protein remaining % ≤ 80%)	A (0% ≤ substrate protein remaining % ≤ 80%)	A (0% ≤ substrate protein remaining % ≤ 80%)	–

The next lines start with the molecule.

Structure (SMILES)	IC50 [1] [nM]	IC50 [5] [nM]	IC50 [6] [nM]	IC50 [8] [nM]	IC50 [9] [nM]	IC50 [10] [nM]	IC50 [11] [nM]	IC50 [13] [nM]	IC50 [15] [nM]	IC50 [16] [nM]	IC50 [17] [nM]	IC50 [18] [nM]	IKZF2 substrate protein remaining % [2]	GSPT1 substrate protein remaining % [3]	CK1a substrate protein remaining % [4]	IKZF3 substrate protein remaining % [7]	IKZF 1 substrate protein remaining % [12]	Weel substrate protein remaining % [14]	IC50 [19] [nM]
O=C1CCC(N2Cc3cc(CN4CCN(c5cccc6sccc56)CC4)ccc3C2=O)C(=O)N1 (centres unmarked) [GT-04202, 3-(5-((4-(benzo[b]thiophen-4-yl)piperazin-1-yl)methyl)-1-oxoisoindolin-2-yl)piperidine-2,6-dione]	1 to 5	1 to 5	500 to 1000	10 to 50	1 to 5	1 to 5	10 to 50	1 to 5	–	–	–	–	A (0% ≤ substrate protein remaining % ≤ 80%)	A (0% ≤ substrate protein remaining % ≤ 80%)	A (0% ≤ substrate protein remaining % ≤ 80%)	A (0% ≤ substrate protein remaining % ≤ 80%)	A (0% ≤ substrate protein remaining % ≤ 80%)	A (0% ≤ substrate protein remaining % ≤ 80%)	–
Cc1ccc(Sc2ccccc2N2CCN(Cc3ccc4c(c3)CN(C3CCC(=O)NC3=O)C4=O)CC2)c(C)c1 (centres unmarked) [GT-04203, 3-(5-((4-(2-((2,4-dimethylphenyl)thio)phenyl)piperazin-1-yl)methyl)-1-oxoisoindolin-2-yl)piperidine-2,6-dione]	5 to 10	5 to 10	500 to 1000	10 to 50	5 to 10	5 to 10	100 to 500	10 to 50	–	–	–	–	A (0% ≤ substrate protein remaining % ≤ 80%)	A (0% ≤ substrate protein remaining % ≤ 80%)	A (0% ≤ substrate protein remaining % ≤ 80%)	A (0% ≤ substrate protein remaining % ≤ 80%)	A (0% ≤ substrate protein remaining % ≤ 80%)	A (0% ≤ substrate protein remaining % ≤ 80%)	–
O=C1CCC(N2Cc3cc(CN4CCC(c5cccc(C(F)(F)F)c5)CC4)ccc3C2=O)C(=O)N1 (centres unmarked) [GT-04472, 3-(1-oxo-5-((4-(3-(trifluoromethyl)phenyl)piperidin-1-yl)methyl)isoindolin-2-yl)piperidine-2,6-dione]	10 to 50	1 to 5	500 to 1000	–	5 to 10	1 to 5	50 to 100	10 to 50	1 to 5	10 to 50	1 to 5	50 to 100	A (0% ≤ substrate protein remaining % ≤ 80%)	A (0% ≤ substrate protein remaining % ≤ 80%)	B (80%< substrate protein remaining %≤ 100%)	A (0% ≤ substrate protein remaining % ≤ 80%)	A (0% ≤ substrate protein remaining % ≤ 80%)	A (0% ≤ substrate protein remaining % ≤ 80%)	–
Cc1ccsc1C1=CCN(Cc2ccc3c(c2)CN(C2CCC(=O)NC2=O)C3=O)CC1 (centres unmarked) [GT-04495, 3-(5-((4-(3-methylthiophen-2-yl)-3,6-dihydropyridin-1(2H)-yl)methyl)-1-oxoisoindolin-2-yl)piperidine-2,6-dione]	1 to 5	< 1	< 500	–	< 1	< 1	10 to 50	1 to 5	< 1	1 to 5	–	1 to 5	A (0% ≤ substrate protein remaining % ≤ 80%)	A (0% ≤ substrate protein remaining % ≤ 80%)	A (0% ≤ substrate protein remaining % ≤ 80%)	B (80%< substrate protein remaining %≤ 100%)	B (80%< substrate protein remaining %≤ 100%)	B (80%< substrate protein remaining %≤ 100%)	1 to 5
